From article PMC6814738, “Bacterial MgrB peptide activates chemoreceptor Fpr3 in mouse accessory olfactory system and drives avoidance behaviour” (Nature Communications, 2019)
Several values for one entry are separate records, joined by “and”; a condition that tells them apart may be missing. Equal values may be shown once. Entries after “also recorded” stand apart in the source; their conditions may differ. Peptide text beside a SMILES is read from it. * marks the point of attachment. For = O=C*

Tests used:
[1] = test system: vomeronasal sensory neurons (VSNs); test: Density of responding VSN knobs in mice of various genotypes, Rhod-2 Ca2+ imaging (Fig. 7a, b); type: cell-based, mouse; conditions: f-MKKFRW 1 µM or PUM; for density of responding knobs: mean ± s.d.
Description: Mice (6–20 week old, either sex) were euthanized by CO2 inhalation according to institutional guidelines. After decapitation, the skin was removed from the skull, the mandible was cut off and the cranium was opened by a sagittal cut, 1–2-mm right-lateral in parallel to the midline. The palate and the right incisor were removed and the hemisected skull was mounted in low-melting agarose (4%). The bony capsule of the VNO was opened with fine forceps and the nonsensory epithelium was stripped off. Tissue and cell debris were gently washed off, and the en face preparation was superfused with physiological S1 solution (120 mM NaCl, 25 mM NaHCO3, 5 mM KCl, 1 mM MgSO4, 1 mM CaCl2, 10 mM glucose, 5 mM BES, pH 7.3) saturated with carbogen (95% O2, 5% CO2).
Loading of the VNE with Rhod-2/AM (5–15 µM, 1 h) was performed in S1 solution under carbogen atmosphere at RT. Images were taken with an upright confocal laser scanning microscope (Leica TCS SP5 II, 20x water immersion objective HCX APO L20x/1.0w) equipped with Ar and He/Ne lasers. GFP was excited at 488 nm, Venus at 514 nm and Rhod-2 at 543 nm. Emission was measured at 490–520 nm (GFP), 520–600 nm (Venus) and 560–680 nm (Rhod-2). To minimise interference between Venus and Rhod-2 fluorescence, images were taken sequentially (sample interval per image, 3–4 s). Peptide stimuli were applied to the VNE surface with a local perfusion system which, when positioned close to the anterior end of the VNO, produced a continuous solution stream from rostral to caudal along the VNO axis. Data analysis was performed with the open source software ImageJ (NIH). Ca^2+ responses of individual dendritic knobs were normalised to the knob resting fluorescence level obtained before stimulation (ratio Fx/F0, Fx = actual fluorescence; F0 = mean fluorescence of 3–5 images before ligand application). Mapping was performed by superimposing Ca^2+ peak images onto images showing intrinsic fluorescence for specific markers.
Predator urine mix was composed of urine from mountain lion, coyote, bobcat, fox and marten (at equal volume ratios), purchased from Predatorpee (USA) and Kieferle (Germany). The fMet peptides were as described above. Stimuli were applied in S2 solution (140 mM NaCl, 5 mM KCl, 10 mM HEPES, 1 mM CaCl2, 1 mM MgCl2, 10 mM glucose, pH 7.3 with NaOH).
For calculations of VSN knob density, we analysed randomly selected VNE areas, each containing several hundred knobs. The mean density of OMP-GFP+ knobs was 11.25 knobs/100 µm². Through the knob density and the VNE surface area, an estimate of the total number of VSNs per VNO can be made. Assuming a mean lumen diameter of 450 µm, a length of 2 mm and an end-to-end semilunar cross-sectional shape of the VNO, a number of ~150,000 VSNs (per side) can be estimated. This number is consistent with our previous estimates.

male mice = test: Behavioural avoidance test, FEU vs. FEU supplemented with peptide (Fig. 8, Supplementary Fig. 4); type: in vivo, mouse; conditions: for avoidance index: mean ± s.e.m.; for Preference (%): group mean value, FEU vs FEU supplemented with 100 µM peptide
Description: These assays were adapted from behavioural procedures described previously[14],[60]. We tested avoidance by giving adult male mice (8–14 week old) of various genotypes a choice to freely investigate two types of chemical stimuli: FEU vs. FEU supplemented with a peptide. Mice were sexually naïve and not exposed to the test stimuli prior to the testing day. Mice were habituated for three days (40 min each day) to clean filter papers (2.5 cm diameter), each deposited in a sterile plastic culture dish and placed in opposite corners of the test cage (30 × 12 cm). After the third habituation period, the test subject was transferred into a new cage containing fresh filter papers/dishes with either of the two test stimuli. One filter paper was impregnated with 45 µl of fresh urine pooled from two sexually naïve female B6 mice (8–16 weeks old) in oestrus (FEU, female oestrous urine) and 5 µl physiological solution containing (in mM): NaCl, 130; KCl, 5; Na-Hepes, 10; CaCl2, 2; glucose, 10; pH = 7.4. For testing the effects of specific peptides, the second filter paper was impregnated with FEU supplemented with a given peptide (100 or 50 µM final concentration, dissolved in physiological solution). Direct physical contact was allowed. Behaviour was recorded for 10 min from the top of the cage. Mice were exposed only once to a given peptide solution, and were exposed to only one peptide stimulus per day. Stimuli were presented in randomised order. […] This investigative behaviour was quantified as the time spent in close contact with each filter paper, scored manually by an observer blind to the experimental conditions using Behavioural Observation Research Interactive Software (BORIS)[85]. Contact time was measured as the time during which the nose crossed the border of a petri dish containing impregnated filter paper. An avoidance index was calculated as (TP — aTU)/(aTP + aTU), with TP as the time an individual mouse investigated a FEU-peptide mixture, aTP as the average time of all tested mice investigating this stimulus and aTU as the average time of all mice investigating FEU without added peptide. Negative values represent avoidance and positive values represent attraction. For analysing investigation of sick conspecifics, B6 mice were injected either with LPS or PBS as described above. In total, 4 h post injection, these mice were anaesthetised with 165 mg/kg ketamine (Pharmacia GmbH, Berlin, Germany) and 11 mg/kg xylazine (Bayer Health Care, Leverkusen, Germany) and then used in behavioural tests.

Fpr1 = conditions: cited from earlier work
Description: (§1) We estimate the fraction of knobs responding to f-MKKFRW as ~0.15%, which is similar to the fraction of cells in the VNE that express Fpr3[30]. Strikingly, the sensitivity and sequence-selectivity profile of these responses was nearly identical to the results that we obtained for heterologously expressed Fpr3. The detection threshold of native VSNs for f-MKKFRW was ≤0.1 µM (Fig. 4f), virtually the same as for Fpr3-expres ...

Fpr2 = conditions: cited from earlier work
Description: as §1

[2] = B6, B2m-Venus+/− and NP2∆+/− mice pooled, n = 14 mice
[3] = 100 µM, B6 mice (f-MKKFRW also ΔFpr3-lacZ+/+, cGαo+/−, Trpc2+/−)
[4] = B6, 100 µM in FEU, n = 10-11, negative = avoidance
[5] = Fig. 8c, individual values, B6 mice
[6] = Fig. 8c, mean, B6 mice, n = 11 f-MKKFRW, 11 MKKFRW, 10 f-MGFFIS, 10 f-MEQQNK, FEU control -0.002

CSCC[C@H](NC=O)C(=O)N[C@@H](CCCCN)C(=O)N[C@@H](CCCCN)C(=O)N[C@@H](Cc1ccccc1)C(=O)N[C@@H](CCCNC(=N)N)C(=O)N[C@@H](Cc1c[nH]c2ccccc12)C(=O)O [f-MKKFRW] (For-MKKFRW-OH)
VSN Ca2+ responses, in words ([1]; 129Sv mice): no responses; also recorded: fail to respond | density of responding knobs ([1]; B2m-Venus +/−): 0.2 ± 0.1% | density of responding knobs ([1]; B6): 0.12 ± 0.04% | density of responding knobs ([1]; NP2∆ +/−): 0.2 ± 0.09% | VSN Ca2+ responses, in words ([1]; Trpc2 −/− mice): absent; also recorded: fail to respond | VSN Ca2+ responses, in words ([1]; cGαo −/− mice): absent; also recorded: fail to respond | density of responding knobs, mean [1, 2]: 0.16 ± 0.08% | density of responding knobs, range [1, 2]: 0.07 to 0.29% | VSN Ca2+ responses, in words ([1]; ∆Fpr3-lacZ −/− mice): absent; also recorded: fail to respond | avoidance, in words (male mice; 50 µM, B6 mice): mice were still capable of displaying avoidance | avoidance, in words (male mice; [3]): robust avoidance | avoidance, in words (male mice; 100 µM, ΔFpr3-lacZ −/−, cGαo −/− and Trpc2 −/− mice): absent | avoidance index (male mice; B6, 50 µM in FEU, N = 9, Supplementary Fig. 4d): -0.34 ± 0.06 | avoidance index (male mice; [4]): −0.34 ± 0.03 | Preference Index (male mice; [5]): -0.2596 and -0.3493 and -0.4593 and -0.377 (2×) and -0.1335 and -0.375 and -0.3656 and -0.2037 and -0.2877 and -0.531 | Preference Index (male mice; [6]): -0.34 | Preference Index (male mice; Fig. 8e, individual values, cGao +/-): -0.2157 and -0.2715 and -0.2275 and -0.592 and -0.6063 and -0.5538 and -0.3716 and -0.4364 and -0.4748 and -0.4802 and -0.5951 and -0.504 and -0.5805 | Preference Index (male mice; Fig. 8e, individual values, cGao -/-): 0.466 and 0.06846 and 0.3027 and 0.3207 and 0.1056 and -0.3803 and 0.00671 and 0.2965 and 0.7963 and 0.4351 and -0.3658 and -0.3561 and -0.3465 | Preference Index (male mice; Fig. 8e, mean, cGao +/-, n = 13 f-MKKFRW, 12 MKKFRW, FEU control -0.0358): -0.45 | Preference Index (male mice; Fig. 8e, mean, cGao -/-, n = 13, FEU control 0.15): 0.10 | Preference Index (male mice; Fig. 8f, individual values, Trpc2 +/-): -0.1378 and -0.4957 and -0.5951 and -0.4313 and -0.5692 and -0.4357 and -0.03894 and -0.2863 and -0.157 and -0.6487 and -0.5152 and -0.5504 | Preference Index (male mice; Fig. 8f, individual values, Trpc2 -/-): -0.1066 and -0.3083 and -0.1978 and -0.152 and 0.6895 and 0.2354 and -0.08494 and 0.4331 and -0.3499 and -0.2993 and -0.07691 | Preference Index (male mice; Fig. 8f, mean, Trpc2 +/-, n = 12 f-MKKFRW, 9 MKKFRW, FEU control -0.0531): -0.41 | Preference Index (male mice; Fig. 8f, mean, Trpc2 -/-, n = 11 f-MKKFRW, 8 MKKFRW, FEU control -0.10): -0.02 | Preference (%) (male mice; Fig. 8g, ∆Fpr3-lacZ +/+ males, FEU/FEU control -5.85844): -25.7155% | Preference (%) (male mice; Fig. 8g, ∆Fpr3-lacZ -/- males, FEU/FEU control 2.58474): 9.5733% | Preference (%) (male mice; Fig. 8h, Trpc2 +/- males, FEU/FEU control 0.100694): -20.0023% | Preference (%) (male mice; Fig. 8h, Trpc2 -/- males, FEU/FEU control -3.21189): -1.896% | Preference Index (male mice; Fig. 8d, individual values, ∆Fpr3-lacZ +/+): -0.634 and -0.7071 and -0.2684 and -0.569 and -0.6199 and -0.495 and -0.4793 and -0.629 and -0.5062 | Preference Index (male mice; Fig. 8d, individual values, ∆Fpr3-lacZ -/-): -0.00973 and -0.216 and 0.248 and 0.6807 and 0.8928 and 0.2328 and 0.2493 and -0.01291 and 0.00975 and -0.2244 and 0.2479 and 0.4981 | Preference Index (male mice; Fig. 8d, mean, ∆Fpr3-lacZ +/+, n = 9 f-MKKFRW, 6 MKKFRW, FEU control -0.06): -0.55 | Preference Index (male mice; Fig. 8d, mean, ∆Fpr3-lacZ -/-, n = 12, FEU control 0.19): 0.22 | avoidance index (male mice; Trpc2 +/−, 100 µM in FEU): −0.41 ± 0.06 | avoidance index (male mice; Trpc2 −/−, 100 µM in FEU): −0.02 ± 0.10 | avoidance index (male mice; cGαo +/−, 100 µM in FEU): −0.45 ± 0.04 | avoidance index (male mice; cGαo −/−, 100 µM in FEU, n = 13): 0.10 ± 0.11 | avoidance index (male mice; ∆Fpr3-lacZ +/+, 100 µM in FEU): −0.55 ± 0.04 | avoidance index (male mice; ∆Fpr3-lacZ −/−, 50 µM in FEU, N = 5, Supplementary Fig. 4d): 0.005 ± 0.08 | avoidance index (male mice; ∆Fpr3-lacZ −/−, 100 µM in FEU, n = 12): 0.22 ± 0.10

f-MGFFIS [bacterial signal peptide fragment]
avoidance, in words (male mice; [3]): failed to elicit avoidance | avoidance index (male mice; [4]): 0.13 ± 0.09 | Preference Index (male mice; [5]): -0.07414 and 0.6081 and -0.2699 and 0.01401 and 0.4619 and -0.1746 and 0.304 and 0.1043 and 0.0419 and 0.2857 | Preference Index (male mice; [6]): 0.13 | activation of Fpr1, in words (Fpr1): activates Fpr1 | activation of Fpr2, in words (Fpr2): activates Fpr1 and Fpr2
